Laboratory results as given in ChEMBL document CHEMBL1138166, “Synthesis and antimycobacterial activity of some alkyl [5-(nitroaryl)-1,3,4-thiadiazol-2-ylthio]propionates” (2006).
Values after ≈ are worked out from the molar mass of the structure shown. Active and inactive are the calls of the source. The calls are words filed in the database; no cut-off is given here.

Test system: Mycobacterium tuberculosis
Assay: Antimycobacterial activity against Mycobacterium tuberculosis H37Rv by microplate alamar blue assay
Assay type: functional
Settings: for MIC: Mycobacterium tuberculosis, H37Rv

SMILES | Activity | Inhibition | MIC
CCOC(=O)C(C)S(=O)(=O)c1nnc(-c2ccc([N+](=O)[O-])o2)s1 (stereo not drawn) | inactive | 78% | > 6.25 mg/L
CCCCOC(=O)CCSc1nnc(-c2ccc([N+](=O)[O-])s2)s1 | Active | 98% | 6.25 mg/L (≈ 16.7 µM)
CCOC(=O)C(C)Sc1nnc(-c2ccc([N+](=O)[O-])s2)s1 (stereo not drawn) | Active | 92% | 6.25 mg/L (≈ 18.1 µM)
COC(=O)CCSc1nnc(-c2ccc([N+](=O)[O-])s2)s1 | inactive | 76% | > 6.25 mg/L
CCCOC(=O)CCSc1nnc(-c2ccc([N+](=O)[O-])o2)s1 | inactive | 0% | > 6.25 mg/L
CCOC(=O)C(C)[S+]([O-])c1nnc(-c2ccc([N+](=O)[O-])s2)s1 (stereo not drawn) | inactive | 12% | > 6.25 mg/L
O=C(O)CCSc1nnc(-c2ccc([N+](=O)[O-])o2)s1 | Active | 95% | 6.25 mg/L (≈ 20.7 µM)
CCOC(=O)C(C)[S+]([O-])c1nnc(-c2ncc([N+](=O)[O-])n2C)s1 (stereo not drawn) | inactive | 11% | > 6.25 mg/L
CCOC(=O)CCSc1nnc(-c2ccc([N+](=O)[O-])o2)s1 | inactive | 14% | > 6.25 mg/L
CCCOC(=O)CCSc1nnc(-c2ccc([N+](=O)[O-])s2)s1 | Active | 98% | 1.56 mg/L (≈ 4.34 µM)
CCOC(=O)C(C)Sc1nnc(-c2ncc([N+](=O)[O-])n2C)s1 (stereo not drawn) | Active | 90% | 6.25 mg/L (≈ 18.2 µM)
COC(=O)CCSc1nnc(-c2ccc([N+](=O)[O-])o2)s1 | inactive | 64% | > 6.25 mg/L
CCOC(=O)C(C)Sc1nnc(-c2ccc([N+](=O)[O-])o2)s1 (stereo not drawn) | Active | 98% | 6.25 mg/L (≈ 19 µM)
O=C(O)CCSc1nnc(-c2ccc([N+](=O)[O-])s2)s1 | inactive | 0% | > 6.25 mg/L
CCCCOC(=O)CCSc1nnc(-c2ccc([N+](=O)[O-])o2)s1 | inactive | 0% | > 6.25 mg/L
CCOC(=O)CCSc1nnc(-c2ccc([N+](=O)[O-])s2)s1 | inactive | 26% | > 6.25 mg/L
CO[C@H]1/C=C/O[C@@]2(C)Oc3c(C)c(O)c4c(O)c(c(/C=N/N5CCN(C)CC5)c(O)c4c3C2=O)NC(=O)/C(C)=C\C=C\[C@H](C)[C@H](O)[C@@H](C)[C@@H](O)[C@@H](C)[C@H](OC(C)=O)[C@@H]1C [RIFAMPIN] |  |  | 0.5 mg/L (≈ 0.608 µM)
CCOC(=O)C(C)S(=O)(=O)c1nnc(-c2ncc([N+](=O)[O-])n2C)s1 (stereo not drawn) | Active | 100% | 3.12 mg/L (≈ 8.31 µM)
CCOC(=O)C(C)[S+]([O-])c1nnc(-c2ccc([N+](=O)[O-])o2)s1 (stereo not drawn) | inactive | 6% | > 6.25 mg/L
CCOC(=O)C(C)S(=O)(=O)c1nnc(-c2ccc([N+](=O)[O-])s2)s1 (stereo not drawn) | inactive | 82% | > 6.25 mg/L
